{"source": "PubChem BioAssay AID1259321", "about": "(Sanford-Burnham Center for Chemical Genomics, 2017)", "note": "The source made the active and inactive calls.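 How the source made its calls: active means half-maximal concentration for changing protein binding to DNA, from the fitted dose curve, below 10 micromolar; inactive means the rest.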", "data": [{"target": "Nuclear receptor subfamily 1 group D member 1 (Homo sapiens) (UniProt P20393)", "sequence (P20393 whole entry, looked up)": "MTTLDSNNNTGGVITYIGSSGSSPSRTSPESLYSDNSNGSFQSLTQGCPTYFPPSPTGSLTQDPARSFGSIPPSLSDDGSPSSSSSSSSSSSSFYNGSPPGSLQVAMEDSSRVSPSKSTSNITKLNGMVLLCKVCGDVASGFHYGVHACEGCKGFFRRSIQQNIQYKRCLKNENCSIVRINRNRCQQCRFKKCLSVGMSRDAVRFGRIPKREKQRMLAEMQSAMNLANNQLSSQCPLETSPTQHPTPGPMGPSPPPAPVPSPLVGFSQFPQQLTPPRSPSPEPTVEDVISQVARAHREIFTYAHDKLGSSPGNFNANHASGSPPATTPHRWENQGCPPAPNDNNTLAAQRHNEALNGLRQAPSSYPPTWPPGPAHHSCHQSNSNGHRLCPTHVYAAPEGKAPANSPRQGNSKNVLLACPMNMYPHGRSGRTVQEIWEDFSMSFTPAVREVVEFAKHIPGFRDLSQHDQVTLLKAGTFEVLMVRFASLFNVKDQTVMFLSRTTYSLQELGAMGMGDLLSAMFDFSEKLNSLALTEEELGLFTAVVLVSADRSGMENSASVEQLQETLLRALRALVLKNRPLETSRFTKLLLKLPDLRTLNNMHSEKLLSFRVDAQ", "experiment": "Rev-erbα–DNA interaction modulators – biochemical, FITC-DNA, fluorescence polarization, dose response (AID 1259321)", "details": "Rev-erb alpha-FITC-DNA binding", "values": [{"compound": "CN1CCS/C1=C\\C=C1/SC(=S)N(CC(=O)O)C1=O", "IC50": "inactive"}, {"compound": "Cc1cc2cc3c(=O)[nH]c(=O)[nH]c3nc2cc1C", "IC50": "3.34 µM"}, {"compound": "CCOC(=O)C(C)Sc1cc(CS(=O)(=O)c2ccccc2)nc(-c2ccccc2)n1", "note": "(stereo not drawn)", "IC50": "> 40 µM (inactive)"}, {"compound": "COc1ccc(C(=O)Nc2ccccc2-c2nnn(CC(N)=O)n2)cc1", "IC50": "inactive"}, {"compound": "COc1ccc(-c2c(C#Cc3ccsc3)c3cc(-c4ccc5c(c4)OCCO5)ccc3n2C)cc1", "IC50": "> 40 µM (inactive)"}, {"compound": "NS(=O)(=O)c1ccc(CCn2c(=S)[nH]c3ccc(F)cc3c2=O)cc1", "IC50": "> 40 µM (inactive)"}, {"compound": "CCOC(=O)c1nn(-c2ccc(Cl)cc2)c2nc(-c3ccc(C)cc3)c(C#N)c(=O)n12", "IC50": "2 µM"}, {"compound": "Oc1ccccc1N=Nc1nc(-c2ccccc2)c(-c2ccccc2)[nH]1", "IC50": "3.98 µM"}, {"compound": "Cc1sc2nc(N3CCOCC3)[nH]c(=O)c2c1-c1ccccc1", "IC50": "7.66 µM"}, {"compound": "COc1ccc(C(=O)COC(=O)c2cc(=O)[nH]c3ccccc23)c(OC)c1", "IC50": "inactive"}, {"compound": "Cc1cc2cc(C#N)c(SCC(=O)Nc3nonc3C)nc2cc1C", "IC50": "1.33 µM"}, {"compound": "COc1ccc(-c2cc(-c3ccc(C)cc3)nc(SCc3nnc(-c4ccccc4)o3)c2C#N)cc1OC", "IC50": "8.78 µM"}, {"compound": "Cc1nc2ccc3nc(NC(=O)c4ccc5c(c4)OCCO5)sc3c2s1", "IC50": "9.57 µM"}, {"compound": "Cc1ccc(-n2nc3c(N4CCC(C(=O)NCCc5cccs5)CC4)nnc(C)c3c2C)cc1", "IC50": "6.89 µM"}, {"compound": "O=C(OCCN1C(=O)c2cccc3c(N4CCOCC4)ccc(c23)C1=O)c1ccc(Cl)cc1Cl", "IC50": "> 40 µM (inactive)"}, {"compound": "COc1ccccc1C(=O)Nc1ccc2oc(-c3ccc(F)cc3)nc2c1", "IC50": "0.436 µM"}, {"compound": "Fc1ccc(-n2c(-c3cccs3)nc3nc4ccccc4nc32)cc1", "IC50": "4.41 µM"}, {"compound": "Cc1ccc2cc(-c3noc(C4CCCCC4)n3)c(=O)[nH]c2c1", "IC50": "inactive"}, {"compound": "COc1cc(/C=C(\\C#N)c2nc3ccccc3[nH]2)cc(OC)c1O", "IC50": "inactive"}, {"compound": "O=C(c1cccs1)N1C(=O)c2cccc3cccc1c23", "IC50": "4.29 µM"}, {"compound": "COc1cc(OC)cc(-c2c(Sc3ccccc3)c3cc(-c4ccc(OC)c(F)c4)ccc3n2C)c1", "IC50": "1.33 µM"}, {"compound": "C=CCn1cc(/C=C/c2cc[n+](C)cc2)c2ccccc21", "IC50": "> 40 µM (inactive)"}, {"compound": "CC[n+]1ccc(/C=C/c2c[nH]c3ccccc23)cc1", "IC50": "inactive"}, {"compound": "Cc1ccc(-c2nc(NC(=O)CSc3cc(C)c4ccccc4n3)ns2)cc1", "IC50": "1.91 µM"}, {"compound": "O=C(NCc1ccco1)c1ccc(Cn2c(=O)c3ccccc3n(Cc3cccc(F)c3)c2=O)cc1", "IC50": "2.43 µM"}, {"compound": "CCCc1cc(=O)oc2cc(C)cc(OCC(=O)Nc3ccc(S(N)(=O)=O)cc3)c12", "IC50": "> 40 µM (inactive)"}, {"compound": "COc1ccc(NC(=O)/C(C#N)=C\\c2ccc(N3CCOCC3)o2)cc1", "IC50": "> 40 µM (inactive)"}, {"compound": "COc1cc(SC)ccc1C(=O)Nc1ccc(Cl)cn1", "IC50": "4.58 µM"}, {"compound": "Cc1cc(/C=C(/C#N)C(=O)Nc2ccc(Cl)cc2)c(C)n1-c1cccnc1", "IC50": "2.66 µM"}, {"compound": "O=C(Nc1nnc(C2CCCCC2)s1)c1ccc(Br)s1", "IC50": "inactive"}, {"compound": "CCOc1ccc(-c2nnc3ccc(SCC(=O)Nc4nc5ccc(C)cc5s4)nn23)cc1", "IC50": "7.12 µM"}, {"compound": "Cc1cc(N2CCCC2)ccc1/C=C1\\NC(=S)N(C)C1=O", "IC50": "inactive"}, {"compound": "CC(=O)c1cc2c(cc1N/C(=N/S(=O)(=O)c1ccccc1)c1ccc(Cl)cc1)OCO2", "IC50": "inactive"}, {"compound": "CCC[C@H]1[C@@H](N(C)Cc2cccs2)CC[C@@]23CCCN2C(=O)CCC[C@@H]13", "IC50": "inactive"}, {"compound": "CCc1nnc(NC(=O)CSc2nc3cc4c(cc3cc2C)OCCO4)s1", "IC50": "7.62 µM"}, {"compound": "O=[N+]([O-])c1ccc(N2CCCCCC2)c2nonc12", "IC50": "> 40 µM (inactive)"}, {"compound": "C#CCn1c(=NC(=O)c2ccc(Br)s2)sc2cccc(OC)c21", "IC50": "2.4 µM"}, {"compound": "Cc1sc2nc(SCC(=O)NCc3ccco3)n(CCc3ccccc3)c(=O)c2c1C", "IC50": "> 40 µM (inactive)"}, {"compound": "Cc1cc(C)c(NC(=O)CSc2nc(COc3ccccc3)nc3ccccc23)c(C)c1", "IC50": "3.42 µM"}, {"compound": "COc1ccc(NC(=O)COC(=O)c2ccc3c(c2)OCO3)c(OC)c1", "IC50": "> 40 µM (inactive)"}, {"compound": "CCCCCn1c(=O)c(C(=O)Nc2ccccc2Cl)c(O)c2ccccc21", "IC50": "> 40 µM (inactive)"}, {"compound": "COc1ccc(CCn2c(-c3ccc(OC)cc3)nc3c(c(=O)c4ccccc4n3C)c2=O)cc1", "IC50": "7.79 µM"}, {"compound": "Cc1nn(C)c(C)c1N1C(=O)c2cccc3c(N)ccc(c23)C1=O", "IC50": "1.13 µM"}, {"compound": "COc1ccc(-n2nc3c(N4CCC(C(=O)NCc5ccccc5)CC4)nnc(C)c3c2C)cc1", "IC50": "> 40 µM (inactive)"}, {"compound": "CCc1nc(SCC(=O)NC2CCCC2)c2oc3ccccc3c2n1", "IC50": "> 40 µM (inactive)"}, {"compound": "CCc1nc(SCC(=O)Nc2ccc3c(c2)OCCO3)c2oc3ccccc3c2n1", "IC50": "1.3 µM"}, {"compound": "O=C1c2cccc3c(N4CCCCC4)ccc(c23)C(=O)N1c1ccccc1O", "IC50": "5.32 µM"}, {"compound": "COc1ccc(C(=O)NNC(=O)C(Cc2ccc(O)cc2)NC(=O)c2ccccc2NC(=O)c2ccc(OC)cc2)cc1", "note": "(stereo not drawn)", "IC50": "inactive"}, {"compound": "CSc1nc(N)c(C#N)c(-c2ccc(Cl)cc2)c1C#N", "IC50": "4.85 µM"}, {"compound": "COC(=O)c1cc2cc(Cl)ccc2nc1SC", "IC50": "2.53 µM"}, {"compound": "Cc1nc(-c2ccccc2)nc2[nH]c(-c3ccccc3)cc(=O)c12", "IC50": "inactive"}, {"compound": "CCN1/C(=C/c2ccc3cc(C)cc(C)c3[n+]2CC)Sc2cc(C)ccc21", "IC50": "> 40 µM (inactive)"}, {"compound": "Cc1ccc2c(n1)sc1c(-c3ccccc3)c(C#N)c(N)nc12", "IC50": "inactive"}, {"compound": "CC1=NN(c2ccccc2)C(=O)/C1=C\\C=C1/N(C)c2ccccc2C1(C)C", "IC50": "> 40 µM (inactive)"}, {"compound": "COc1ccc(-c2nc3c(c(=O)c4ccccc4n3C)c(=O)n2Cc2ccccc2)cc1", "IC50": "9.23 µM"}, {"compound": "O=c1oc2c3c4c(cc2c(C(F)(F)F)c1CCN1CCOCC1)CCCN4CCC3", "IC50": "inactive"}, {"compound": "C=CCn1c(=NC(=O)c2cccs2)sc2cc(NC(C)=O)ccc21", "IC50": "inactive"}, {"compound": "CCN1/C(=C/c2ccc3cc(C)ccc3[n+]2CC)Sc2ccccc21", "IC50": "> 40 µM (inactive)"}, {"compound": "CCCn1c(N)c(C(=O)CSc2nc(C)nc3sc(C)c(C)c23)c(=O)[nH]c1=O", "IC50": "> 40 µM (inactive)"}, {"compound": "COc1ccc(Cl)cc1CC1(C)C(=O)Nc2ccc(-c3ccccc3OC)cc21", "note": "(stereo not drawn)", "IC50": "3.44 µM"}, {"compound": "CCOC(=O)Nc1ccc2c(COC(=O)CNS(=O)(=O)c3ccc(NC(C)=O)cc3)cc(=O)oc2c1", "IC50": "0.548 µM"}, {"compound": "Cc1ccc(-c2c(C#N)c(N)n(-c3ccc(Cl)cc3)c(=O)c2C#N)cc1", "IC50": "inactive"}, {"compound": "CCc1nnc(NS(=O)(=O)c2ccc(Nc3ccc([N+](=O)[O-])c4nonc34)cc2)s1", "IC50": "9.46 µM"}, {"compound": "Cc1cccc(C)c1NC(=O)COc1ccccc1C(=O)Nc1ccc(Br)cn1", "IC50": "4.34 µM"}, {"compound": "COc1cccc(NC(=O)CSc2nc3ncc(Br)cc3[nH]2)c1", "IC50": "1.3 µM"}, {"compound": "O=C1/C(=C\\c2cc(Cl)c(O)c(Cl)c2)SC(=S)N1Cc1ccccc1", "IC50": "> 40 µM (inactive)"}, {"compound": "COC(=O)c1ccc(Cn2ccc3ccc(-c4ccc5ccn(C(=O)c6ccccc6OC)c5c4)cc32)cc1", "IC50": "5.24 µM"}, {"compound": "COc1cccc(CNC(=O)C[C@H]2CC[C@H]3[C@@H](COc4ccc(NC(=O)c5cccs5)cc4C(=O)N3C)O2)c1", "IC50": "7.17 µM"}, {"compound": "COc1cc(N2N=C(c3ccccc3)CC2c2ccccc2)c(C=O)cc1C=O", "note": "(stereo not drawn)", "IC50": "4.6 µM"}, {"compound": "CCc1cc2cc(C)cc(C)c2nc1SCC(=O)N1CCCC1", "IC50": "> 40 µM (inactive)"}, {"compound": "COc1cc(NC(=O)CCn2c(=S)[nH]c3ccccc3c2=O)cc(OC)c1OC", "IC50": "inactive"}, {"compound": "CCC(=O)c1ccc(N2CCN(S(=O)(=O)c3ccccc3)CC2)c(F)c1", "IC50": "2.96 µM"}, {"compound": "O=C(COc1ccc2ccccc2c1Br)NNC(=O)Nc1ccccc1", "IC50": "0.778 µM"}]}]}
